According to patent publication US5258362A, “Renin inhibiting compounds” (Abbott Laboratories, priority 1992, dated 1993):

What follows are molecules tested against T1, human renal renin (Homo sapiens, UniProt P00797) (assay: Inhibition of human renal renin in vitro (angiotensin I formed, measured by radioimmunoassay)). Details: human renal renin with renin substrate (human angiotensinogen), 37° C., pH 6.0.
T1 construct: human renal renin, free from acid proteolytic activity; from tissue; host or cells: human kidney (from the word 'renal')
T1 sequence (P00797 67-406): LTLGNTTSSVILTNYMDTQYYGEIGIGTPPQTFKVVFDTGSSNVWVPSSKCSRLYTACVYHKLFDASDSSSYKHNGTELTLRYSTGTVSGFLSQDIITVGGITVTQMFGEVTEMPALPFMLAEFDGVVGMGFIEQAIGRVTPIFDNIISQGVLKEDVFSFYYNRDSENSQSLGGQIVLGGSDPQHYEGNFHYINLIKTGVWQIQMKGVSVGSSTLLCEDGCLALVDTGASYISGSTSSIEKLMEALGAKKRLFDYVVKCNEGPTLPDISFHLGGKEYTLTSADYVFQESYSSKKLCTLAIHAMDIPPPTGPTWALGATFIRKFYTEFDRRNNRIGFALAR
Assay type: biochemical
Method: At the end of the incubation, the amount of angiotensin I formed is measured by radioimmunoassay and the molar concentration required to cause 50% inhibition, expressed as the IC50 is calculated.

| Structure (SMILES) | IC50 |
| --- | --- |
| CC[C@H]1CO[C@@H]1[C@H](O)[C@H](CC1CCCCC1)NC(=O)[C@H](CC(C)C)NC(=O)[C@@H](CC(=O)N1CCN(C)CC1)Cc1ccccc1 [Example 163, (2R)-2-Benzyl-3-(4-methylpiperazin-1-ylcarbonyl)propionyl-leucine Amide of (1R,2S,2'S,3'S)-2-Amino-3-cyclohexyl-1-[3'-(ethyl)oxetan-2'-yl]-1-(hydroxy)propane] | 0.51 nM |
| CCCC[C@H](NC(=O)C(Cc1ccccc1)Cn1ccnc1)C(=O)N[C@@H](CC1CCCCC1)[C@@H](O)[C@H]1OC[C@@H]1CC (mixture of isomers) [Example 154, (2RS)-2-Benzyl-3-(imidazol-1-yl)propionyl-(nor)Leucine Amide of (1R,2S,2'S,3'S)-2-Amino-3-cyclohexyl-1-[3'-(ethyl)oxetan-2'-yl]-1-(hydroxy)propane] | 0.7 nM |
| CCCCC(NC(=O)CCc1ccccc1)C(=O)N[C@@H](CC1CCCCC1)[C@@H](O)[C@H]1OC[C@@H]1CC (stereo partly drawn) [Example 186, Dihydrocinnamoyl-(nor)Leucine Amide of (1R,2S,2'S,3'S)-2-Amino-3-cyclohexyl-1-[3'-(ethyl)oxetan-2'-yl]-1-(hydroxy)propane] | 3.3 nM |
| CC(C)C[C@H]1CO[C@@H]1[C@H](O)[C@H](CC1CCCCC1)NC(=O)[C@H](Cc1cnc[nH]1)NC(=O)[C@H](Cc1ccccc1)NC(=O)OC(C)(C)C [Example 44, Boc-Phe-His Amide of (1R,2S,2'S,3'S)-2-Amino-3-cyclohexyl-1-hydroxy-1-[3'-(isobutyl)oxetan-2'-yl]propane] | 1.1 nM |
| CC[C@H]1CO[C@@H]1[C@H](O)[C@H](CC1CCCCC1)NC(=O)[C@H](CC(C)C)NC(=O)C(Cc1ccccc1)Cc1ccccc1 [Example 183, Dibenzylacetyl-Leucine Amide of (1R,2S,2'S,3'S)-2-Amino-3-cyclohexyl-1-[3'-(ethyl)oxetan-2'-yl]-1-(hydroxy)propane] | 1.2 nM |
| CCCC[C@H](O[C@@H](Cc1ccccc1)C(=O)N1CCC(OCOC)CC1)C(=O)N[C@@H](CC1CCCCC1)[C@@H](O)[C@H]1OC[C@@H]1C(C)C [Example 72, (2S)-[(1S)-[(Methoxymethoxy)piperidin-1-yl]carbonyl-2-phenylethoxy]hexanoicAcid Amide of (1R,2S,2'S,3'S)-2-Amino-3-cyclohexyl-1-[3'-(isopropyl)oxetan-2'-yl]-1-(hydroxy)propane] | 0.8 nM |
| CCOC(=O)NC(Cc1ccccc1)C(=O)NC(CC(C)C)C(=O)N[C@@H](CC1CCCCC1)[C@@H](O)[C@H]1OC[C@@H]1CC (stereo partly drawn) [Example 164, Ethoxycarbonyl-Phe-Leu Amide of (1R,2S,2'S,3'S)-2-Amino-3-cyclohexyl-1-[3'-(ethyl)oxetan-2'-yl]-1-(hydroxy)propane] | 0.46 nM |
| CC[C@H]1CO[C@@H]1[C@H](O)[C@H](CC1CCCCC1)NC(=O)C(Cc1cnc[nH]1)NC(=O)C(Cc1ccccc1)NC(=O)OC(C)(C)C (stereo partly drawn) [Example 40, Boc-Phe-His Amide of (1R,2S,2'S,3'S)-2-Amino-3-cyclohexyl-1-[3'-(ethyl)oxetan-2'-yl]-1-(hydroxy)propane] | 0.47 nM |
| CC[C@H]1CO[C@@H]1[C@H](O)[C@H](CC1CCCCC1)NC(=O)C(Cc1cscn1)NC(=O)[C@H](Cc1ccccc1)Cn1ccnc1 (stereo partly drawn) [Example 76, (2R)-2-Benzyl-3-(imidazol-1-yl)propionyl-(4-thiazolyl)alanine Amide of (1R,2S,2'S,3'S)-1-Amino-3-cyclohexyl-1-[3'-(ethyl)oxetan-2'-yl]-1-(hydroxy)propane] | 0.28 nM |
| CC[C@H]1CO[C@@H]1[C@H](O)[C@H](CC(C)C)NC(=O)C(Cc1cscn1)NC(=O)[C@H](Cc1ccccc1)CS(=O)(=O)N1CCN(C)CC1 (stereo partly drawn) [Example 178, (2S) 2-Benzyl-3-(1-methyl-piperazin-4-ylsulfonyl)propionyl-(4-thiazolyl)alanineAmide of (1R,2S,2'S,3'S)-2-Amido-1-[3'-(ethyl)oxetan-2'-yl]-1-hydroxy-4-(methyl)pentane] | 0.38 nM |
| CC[C@H]1CO[C@@H]1[C@H](O)[C@H](CC1CCCCC1)NC(=O)[C@H](Cc1cscn1)NC(=O)[C@@H](CC(=O)N(C)CCc1ccccn1)Cc1ccccc1 [Example 71, (2R)-2-Benzyl-3-[(2-pyridin-2-ylethyl)methylaminocarbonyl]propionyl-(4-thiazolyl)alanine Amide of (1R,2S,2'S,3'S)-2-Amino-3-cyclohexyl-1-[3'-(ethyl)oxetan-2'-yl]-1-(hydroxy)propane] | 0.27 nM |
| CC(C)(C)OC(=O)N[C@@H](Cc1ccccc1)C(=O)N[C@@H](Cc1cnc[nH]1)C(=O)N[C@@H](CC1CCCCC1)[C@@H](O)[C@H]1OCC1(C)C [Example 48, Boc-Phe-His Amide of (1R,2S,2'S)-2-Amino-3-cyclohexyl-1-[3',3'-(dimethyl)oxetan-2'-yl]-1-(hydroxy)propane] | 1 nM |
| CCCC[C@H](NC(=O)C(Cc1ccccc1)Cc1ccccc1)C(=O)N[C@@H](CC1CCCCC1)[C@@H](O)[C@H]1OC[C@@H]1CC [Example 188, Dibenzylacetyl-(nor)Leucine Amide of (1R,2S,2'S,3'S)-2-Amino-3-cyclohexyl-1-[3'-(ethyl)oxetan-2'-yl]-1-(hydroxy)propane] | 0.68 nM |
| CCC[C@H]1CO[C@@H]1[C@H](O)[C@H](CC1CCCCC1)NC(=O)C(Cc1cnc[nH]1)NC(=O)C(Cc1ccccc1)NC(=O)OC(C)(C)C (stereo partly drawn) [Example 43, Boc-Phe-His Amide of (1R,2S,2'S,3'S)-2-Amino-3-cyclohexyl-1-hydroxy-1-[3'-(propyl)oxetan-2'-yl]propane] | 0.38 nM |
| CC[C@H]1CO[C@@H]1[C@H](O)[C@H](CC(C)C)NC(=O)C(Cc1cnc[nH]1)NC(=O)C(Cc1ccccc1)NC(=O)OC(C)(C)C (stereo partly drawn) [Example 171, Boc-Phe-His Amide of (1R,2S,2'S,3'S)-2-Amino-1-[3'-(ethyl)oxetan-2'-yl]-1-hydroxy-4-(methyl)pentane] | 0.5 nM |
| CC(C)(C)OC(=O)NC(Cc1ccccc1)C(=O)NC(Cc1cnc[nH]1)C(=O)N[C@@H](CC1CCCCC1)[C@@H](O)[C@@H]1CCO1 (stereo partly drawn) [Example 45, Boc-Phe-His Amide of (1R,2S,2'S)-2-Amino-3-cyclohexyl-1-hydroxy-1-(oxetan-2'-yl)propane] | 1.2 nM |
| CC[C@H]1CO[C@@H]1[C@H](O)[C@H](CC(C)C)NC(=O)C(Cc1cscn1)NC(=O)[C@H](Cc1ccccc1)Cn1ccnc1 (stereo partly drawn) [Example 181, (2R)-2-Benzyl-3-(imidazol-1-yl)propionyl-(4-thiazolyl)alanine Amide of (1R,2S,2S',3'S)-2-Amino-1-(3'-(ethyl)oxetan-2'-yl]-1-hydroxy-4-(methyl)pentane] | 3.7 nM |
| C[C@H]1CO[C@@H]1[C@H](O)[C@H](CC1CCCCC1)NC(=O)C(Cc1cnc[nH]1)NC(=O)C(Cc1ccccc1)NC(=O)OC(C)(C)C (stereo partly drawn) [Example 46, Boc-Phe-His Amide of (1R,2S,2'S,3'S)-2-Amino-3-cyclohexyl-1-hydroxy-1-[3'-(methyl)oxetan-2'-yl]propane] | 0.51 nM |
| CCCC[C@H](NC(=O)[C@@H](CC(=O)N1CCN(C)CC1)Cc1ccccc1)C(=O)N[C@@H](CC1CCCCC1)[C@@H](O)[C@H]1OC[C@@H]1CC [Example 155, (2R)-2-Benzyl-3-(4-methylpiperazin-1-ylcarbonyl)propionyl(nor)Leucine Amide of (1R,2S,2'S,3'S)-2-Amino-3-cyclohexyl-1-[3'-(ethyl)oxetan-2'-yl]-1-(hydroxy)propane] | 0.37 nM |
| CC[C@H]1CO[C@@H]1[C@H](O)[C@H](CC1CCCCC1)NC(=O)[C@H](Cc1cscn1)NC(=O)[C@@H](CC(=O)N1CCOCC1)Cc1ccccc1 [Example 69, (2R)-2-Benzyl-3-(morpholinocarbonyl)propionyl-(4-thiazolyl)alanine Amide of (1R,2S,2'S,3'S)-2-Amino-3-cyclohexyl-1-[3'-(ethyl)oxetan-2'-yl]-1-(hydroxy)propane] | 0.25 nM |
| CCCC[C@H](NC(=O)[C@H](Cc1ccccc1)Cn1ccnc1)C(=O)N[C@@H](CC1CCCCC1)[C@@H](O)[C@H]1OC[C@@H]1CC [Example 189, (2R)-2-Benzyl-3-(imidazol-1-yl)propionyl-(nor)Leucine Amide of (1R,2S,2'S,3'S)-2-Amino-3-cyclohexyl-1-[3'-(ethyl)oxetan-2'-yl]-1-(hydroxy)propane] | 0.46 nM |
| CC[C@H]1CO[C@@H]1[C@H](O)[C@H](CC1CCCCC1)NC(=O)C(Cc1cscn1)NC(=O)[C@H](Cc1ccccc1)CS(=O)(=O)N1CCN(C)CC1 (stereo partly drawn) [Example 68, (2S) 2-Benzyl-3-(1-methyl-piperazin-4-ylsulfonyl)propionyl-(4-thiazolyl)alanineAmide of (1R,2S,2'S,3'S)-2-Amino-3-cyclohexyl-1-[3'-(ethyl)oxetan-2'-yl]-1-(hydroxy)propane] | 0.19 nM |
| CC[C@H]1CO[C@@H]1[C@H](O)[C@H](CC1CCCCC1)NC(=O)C(C)NC(=O)[C@H](Cc1ccccc1)CS(=O)(=O)N1CCN(C)CC1 (stereo partly drawn) [Example 191, (2S) 2-Benzyl-3-(1-methyl-piperazin-4-ylsulfonyl)propionylalanine Amide of (1R,2S,2'S,3'S)-2-Amino-3-cyclohexyl-1-[3'-(ethyl)oxetan-2'-yl]-1-(hydroxy)propane] | 0.58 nM |
| CC[C@H]1CO[C@@H]1[C@H](O)[C@H](CC1CCCCC1)NC(=O)C(C)NC(=O)[C@H](Cc1ccccc1)Cn1ccnc1 (stereo partly drawn) [Example 192, (2R)-2-Benzyl-3-(imidazol-1-yl)propionyl-alanine Acid of (1R,2S,2'S,3'S)-2-Amino-3-cyclohexyl-1-[3'-(ethyl)oxetan-2'-yl]-1-(hydroxy)propane] | 3.4 nM |
